Tested on: human umbilical vein endothelial cells (HUVEC)
Experiment: HUVEC proliferation assay
Format: cell-based
Details: for % inhibition @ 150 nM: Table I screening results, crude combinatorial amide library; for inhibition at 0.001 µM / inhibition at 0.01 µM: Homo sapiens, HUVEC, table following Table II (untitled), crude combinatorial library; for inhibition at 0.001 µM: 1 nM; for inhibition at 0.01 µM: 10 nM, read-out: % inhibition @ 10 nM
Method in brief: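 Readout was MTT dye reduction (A595) after 72 h of stimulation with VEGF at 6 ng/ml final. Compound, in 0.1% DMSO final, was added 1 h before VEGF to HUVEC starved 24 h in 1% FBS. % inhibition was scaled between VEGF-alone and unstimulated wells; IC50 was fitted from triplicate dose curves.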

SMILES	% inhibition @ 150 nM [%]	inhibition at 0.001 µM [%]	inhibition at 0.01 µM [%]
COc1cc(Nc2nc(N)c(-c3nc(-c4cccc(NC(=O)C5CCN(C(C)=O)CC5)c4)cs3)s2)cc(OC)c1OC	0	–	–
COc1cc(Nc2nc(N)c(-c3nc(-c4cccc(NC(=O)/C=C/c5cccc6ccccc56)c4)cs3)s2)cc(OC)c1OC	0	–	–
COc1cc(Nc2nc(N)c(-c3nc(-c4cccc(NC(=O)C(C5CCCCC5)C5CCCCC5)c4)cs3)s2)cc(OC)c1OC	0	–	–
COc1cc(Nc2nc(N)c(-c3nc(-c4cccc(NC(=O)CCc5cccnc5)c4)cs3)s2)cc(OC)c1OC	0	–	–
COc1cc(/C=C/C(=O)Nc2cccc(-c3csc(-c4sc(Nc5cc(OC)c(OC)c(OC)c5)nc4N)n3)c2)cc(OC)c1OC	0	–	–
COc1ccc(/C=C/C(=O)Nc2cccc(-c3csc(-c4sc(Nc5cc(OC)c(OC)c(OC)c5)nc4N)n3)c2)cc1OC	0	–	–
C=CCC(C)C(=O)Nc1cccc(-c2csc(-c3sc(Nc4cc(OC)c(OC)c(OC)c4)nc3N)n2)c1 (stereo not drawn)	0	–	–
[CH2-][N+](=O)c1cccc(/C=C/C(=O)Nc2cccc(-c3csc(-c4sc(Nc5cc(OC)c(OC)c(OC)c5)nc4N)n3)c2)c1	0	–	–
COc1cc(Nc2nc(N)c(-c3nc(-c4cccc(NC(=O)/C=C/c5cccc(Cl)c5)c4)cs3)s2)cc(OC)c1OC	0	–	–
COc1cc(Nc2nc(N)c(-c3nc(-c4cccc(NC(=O)/C=C/c5ccco5)c4)cs3)s2)cc(OC)c1OC	0	–	–
COc1cc(Nc2nc(N)c(-c3nc(-c4cccc(NC(=O)/C=C/c5ccoc5)c4)cs3)s2)cc(OC)c1OC	0	–	–
COc1cc(Nc2nc(N)c(-c3nc(-c4cccc(NC(=O)/C=C/c5ccccc5F)c4)cs3)s2)cc(OC)c1OC	0	–	–
COc1cc(Nc2nc(N)c(-c3nc(-c4cccc(NC(=O)/C=C/c5ccc(F)cc5)c4)cs3)s2)cc(OC)c1OC	0	–	–
COc1cc(Nc2nc(N)c(-c3nc(-c4cccc(NC(=O)C(=O)c5c[nH]c6ccccc56)c4)cs3)s2)cc(OC)c1OC	0	–	–
COc1ccc(C(=O)Nc2cccc(-c3csc(-c4sc(Nc5cc(OC)c(OC)c(OC)c5)nc4N)n3)c2)cc1Cl	0	–	–
COc1cc(Nc2nc(N)c(-c3nc(-c4cccc(NC(=O)Cc5ccccc5C)c4)cs3)s2)cc(OC)c1OC	0	–	–
COc1cc(Nc2nc(N)c(-c3nc(-c4cccc(NC(=O)/C=C/c5cccc(F)c5)c4)cs3)s2)cc(OC)c1OC	0	–	–
COc1ccccc1CCC(=O)Nc1cccc(-c2csc(-c3sc(Nc4cc(OC)c(OC)c(OC)c4)nc3N)n2)c1	0	–	–
COc1cc(CCC(=O)Nc2cccc(-c3csc(-c4sc(Nc5cc(OC)c(OC)c(OC)c5)nc4N)n3)c2)cc(OC)c1OC	0	–	–
COc1cc(Nc2nc(N)c(-c3nc(-c4cccc(NC(=O)CCc5ccccc5Cl)c4)cs3)s2)cc(OC)c1OC	0	–	–
COc1cc(Nc2nc(N)c(-c3nc(-c4cc(NC(=O)c5cc(=O)[nH]c(=O)[nH]5)ccc4C)no3)s2)cc(OC)c1OC	–	-4	4
COc1cc(Nc2nc(N)c(-c3nc(-c4cc(NC(=O)C5CCCO5)ccc4C)no3)s2)cc(OC)c1OC (stereo not drawn)	–	7	21
COc1cc(Nc2nc(N)c(-c3nc(-c4cc(NC(=O)Cc5cc(F)ccc5F)ccc4C)no3)s2)cc(OC)c1OC	–	-7	59

SMILES	% inhibition @ 150 nM [%]	inhibition at 0.001 µM [%]	inhibition at 0.01 µM [%]
COc1cc(Nc2nc(N)c(-c3nc(-c4cc(NC(=O)Cc5cc(F)cc(F)c5)ccc4C)no3)s2)cc(OC)c1OC	–	4	67
COc1cccc(CC(=O)Nc2ccc(C)c(-c3noc(-c4sc(Nc5cc(OC)c(OC)c(OC)c5)nc4N)n3)c2)c1	–	12	35
COc1cc(Nc2nc(N)c(-c3nc(-c4cc(NC(=O)C5CC[C@H]6C=C[C@@H]5C6)ccc4C)no3)s2)cc(OC)c1OC (stereo partly drawn)	–	-2	33
COc1cc(Nc2nc(N)c(-c3nc(-c4cc(NC(=O)CCc5ccc(C)cc5)ccc4C)no3)s2)cc(OC)c1OC	–	-18	23
COc1cc(Nc2nc(N)c(-c3nc(-c4cc(NC(=O)c5cc(C)on5)ccc4C)no3)s2)cc(OC)c1OC	–	12	15
COc1cc(Nc2nc(N)c(-c3nc(-c4cc(NC(=O)C(=O)CC(C)C)ccc4C)no3)s2)cc(OC)c1OC	–	7	18
COc1cc(Nc2nc(N)c(-c3nc(-c4cc(NC(=O)C5CCCC(OC)C5)ccc4C)no3)s2)cc(OC)c1OC (stereo not drawn)	–	-4	19
COc1cc(Nc2nc(N)c(-c3nc(-c4cc(NC(=O)C5(c6ccc(C)cc6)CC5)ccc4C)no3)s2)cc(OC)c1OC	–	10	-8
COc1cc(Nc2nc(N)c(-c3nc(-c4cc(NC(=O)Cc5sc(S)nc5C)ccc4C)no3)s2)cc(OC)c1OC	–	-17	1
COc1cc(Nc2nc(N)c(-c3nc(-c4cc(NC(=O)c5cc(C)n(C)n5)ccc4C)no3)s2)cc(OC)c1OC	–	25	99
COc1cc(Nc2nc(N)c(-c3nc(-c4cc(NC(=O)C5CC(=O)OC5(C)C)ccc4C)no3)s2)cc(OC)c1OC (stereo not drawn)	–	-9	12
COc1cc(Nc2nc(N)c(-c3nc(-c4cc(NC(=O)c5cc(C)n[nH]5)ccc4C)no3)s2)cc(OC)c1OC	–	-1	99
COc1cc(Nc2nc(N)c(-c3nc(-c4cc(NC(=O)c5cc(C)nn5C)ccc4C)no3)s2)cc(OC)c1OC	–	-23	109
COc1cc(Nc2nc(N)c(-c3nc(-c4cc(NC(=O)c5cc(C)[nH]c5C)ccc4C)no3)s2)cc(OC)c1OC	–	-36	16
COc1cc(Nc2nc(N)c(-c3nc(-c4cc(NC(=O)c5cccc6cc[nH]c56)ccc4C)no3)s2)cc(OC)c1OC	–	34	41
C/C=C(\C)C(=O)Nc1ccc(C)c(-c2noc(-c3sc(Nc4cc(OC)c(OC)c(OC)c4)nc3N)n2)c1	–	60	123
COc1cc(Nc2nc(N)c(-c3nc(-c4cc(NC(=O)c5cc(=O)cco5)ccc4C)no3)s2)cc(OC)c1OC	–	19	37
CCCN(CCC)CC(=O)Nc1ccc(C)c(-c2noc(-c3sc(Nc4cc(OC)c(OC)c(OC)c4)nc3N)n2)c1	–	6	0
CC/C=C(\C)C(=O)Nc1ccc(C)c(-c2noc(-c3sc(Nc4cc(OC)c(OC)c(OC)c4)nc3N)n2)c1	–	32	74
COc1cc(Nc2nc(N)c(-c3nc(-c4cc(NC(=O)Cc5c(F)cccc5F)ccc4C)no3)s2)cc(OC)c1OC	–	-23	42
COc1cc(Nc2nc(N)c(-c3nc(-c4cc(NC(=O)C5C(C)(C)C5(C)C)ccc4C)no3)s2)cc(OC)c1OC	–	-31	32
CCNc1ccccc1C(=O)Nc1ccc(C)c(-c2noc(-c3sc(Nc4cc(OC)c(OC)c(OC)c4)nc3N)n2)c1	–	-21	18
COc1cc(Nc2nc(N)c(-c3nc(-c4cc(NC(=O)[C@H]5CCCN5C(C)=O)ccc4C)no3)s2)cc(OC)c1OC	–	-44	-3

From US6620828B2, “Thiazole compounds and pharmaceutical compositions for inhibiting protein kinases and methods for their use” (Agouron Pharmaceuticals, Inc., priority 1999, dated 2003)
